outcome, EC50 and IC50 data for 73 compounds are collected here from PubChem BioAssay AID179 (DTP/NCI, 2004).

Calls of active or inactive are those of the source.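 Rule for the calls: active = compounds giving half or more protection of infected cells from virus-caused growth loss, again on retest; inactive = the rest.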 Where a SMILES comes first, the peptide text is derived from it. The star is where a group is joined. Boc = CC(C)(C)OC(=O)*; Bn = c1ccc(C*)cc1

The test system of the test is CEM cells HIV-1 protection, formazan growth assay. Kind of test: NCI AIDS Antiviral Assay. The following applies: for IC50: measured here: growth of uninfected CEM cells. In short, it runs like this:
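Protection of CEM cells against HIV-1 was scored from cell growth (soluble formazan) across five concentrations, with parallel uninfected cells. Lack of protection may reflect toxicity.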

Take `N#Cc1c2c(c(-c3cccs3)n(C3OC(CO)C(O)C(O)C3O)c1=S)CCc1ccccc1-2` (stereo unspecified): the outcome was inactive. On the same count and under the same terms, the result for `NC1C2CC3CC(C2)CC1(N)C3` (stereo unspecified) reads “inactive”.

With `Cc1ccc2c(c1)CC1(C2=O)[C@H](c2ccccc2)C2C(=O)c3ccc(C)cc3C2[C@H]1c1ccccc1` (stereo partly specified), the EC50 was > 200 µM. For `Cn1nc(NC(=O)c2cc(N)nn2C)cc1C(=O)Nc1ccc2cc(S(=O)(=O)O)cc(S(=O)(=O)O)c2c1`, the EC50 was > 200 µM and the IC50 is > 200 µM. As to `O=C1COC(c2ccccc2)C(c2ccccc2)(c2ccccc2)O1` (stereo unspecified), the EC50 was > 15.8 µM and the 50% inhibitory concentration (IC50) is > 15.8 µM. As to `O=C(Nc1nc2ccsc2s1)c1ccccc1`, the EC50 was > 501 µM and the IC50 was > 501 µM. With `Nc1nc(O)c2ncn([C@H]3CC[C@@H](CO)O3)c2n1`, the EC50 was 1.74 µM and the half-maximal inhibitory concentration (IC50) is > 200 µM. In the same order, the values of `CC1COC(C)(C)P(c2ccccc2)C1` (stereo unspecified) are > 1120 µM and > 1120 µM. For the compound `O=C(Cc1csc2[n+]1C(=O)/C(=C/c1ccc(Cl)cc1)S2)Nc1ccccc1`, the EC50 is > 200 µM and the concentration for half-maximal inhibition (IC50) was 30.2 µM. As for `CCCCCCCCOCCS(=O)(=O)O`, the EC50 was > 200 µM and the IC50 is > 200 µM. As for `O=C1CSC(=S)N1c1ccc2c(c1)OCO2`, the EC50 was > 200 µM and the IC50 is 79.4 µM. The matching figures for `N#CC1(c2ccccc2)CCN(Cc2ccccc2)CC1`: > 115 µM and 60.3 µM. The matching figures for `Cc1cc(C#N)c(Nc2ccc(F)cc2[N+](=O)[O-])s1`: > 200 µM and > 200 µM.

Consider `NC(CCC(=O)NC(CSSCCCCS(=O)O)C(=O)NCC(=O)O)C(=O)O` (stereo unspecified), for which the outcome was inactive.

For the compound `OCC1C(OCc2ccccc2)C(OCc2ccccc2)C(OCc2ccccc2)CN1Cc1ccccc1` (stereo unspecified), the outcome was inactive.

Regarding `CC(C)(C)CS(=O)(=O)O.[Ag]`, the EC50 was > 200 µM and the IC50 was 10.5 µM. The matching figures for `Cc1ccc(C(c2c(O)c3ccccc3n(-c3ccccc3)c2=O)c2c(O)c3ccccc3n(-c3ccccc3)c2=O)cc1`: > 12.6 µM and > 12.6 µM. In the same order, the values of `CN1C(=O)C(C)(O)Sc2ccccc21` (stereo unspecified) are > 1200 µM and 501 µM.

Turning to `Cc1nc(C)c(C(=O)NNC(=O)C[n+]2ccccc2)cc1C(=O)NNC(=O)C[n+]1ccccc1`, the EC50 was > 200 µM and the IC50 is > 200 µM.

On to `C[N+](C)(CCOc1ccccc1)Cc1cccs1`, for which the EC50 was > 200 µM and the IC50 was > 200 µM.

For the compound `CCOC(=O)c1ccc(CS(=O)(=O)c2ccccc2C(=O)OCC)cc1`, the EC50 is > 95.5 µM and the IC50 is > 95.5 µM.

On to `CC1(c2cccc(C3CC4(CCC3=O)OCCCCO4)c2)OCCO1` (stereo unspecified), for which the EC50 is > 200 µM and the IC50 is > 200 µM.

As for `O=C1C2CC3OC3CC2C(=O)N1CCCCCCN1C(=O)C2CC3OC3CC2C1=O` (stereo unspecified), the EC50 was > 200 µM and the 50% inhibitory concentration (IC50) is > 200 µM.

As for `Cc1nn(-c2ccccc2)c(=O)n2c1nc1ccccc12`, the EC50 is > 93.3 µM and the IC50 worked out at 58.9 µM. In the same order, the values of `O=C(OCC1OC(OC(=O)c2cc(O)c(O)c(OC(=O)c3cc(O)c(O)c(O)c3)c2)C(OC(=O)c2cc(O)c(O)c(OC(=O)c3cc(O)c(O)c(O)c3)c2)C(OC(=O)c2cc(O)c(O)c(OC(=O)c3cc(O)c(O)c(O)c3)c2)C1OC(=O)c1cc(O)c(O)c(OC(=O)c2cc(O)c(O)c(O)c2)c1)c1cc(O)c(O)c(OC(=O)c2cc(O)c(O)c(O)c2)c1` (stereo unspecified) are > 60.3 µM and 6.76 µM. In the same order, the values of `C[C@H]1S[C@@H](c2ccc(Cl)cc2Cl)N(NC(=O)c2ccncc2)C1=O` are > 200 µM and 74.1 µM. The matching figures for `O=C(O)CC(c1ccccc1)C(CC(=O)O)c1ccccc1` (stereo unspecified): > 437 µM and > 437 µM. In the case of `O=[As]O`, the outcome was inactive.

With `COC12CCCC1S(=O)(=O)C2` (stereo unspecified), the result was inactive. As to `CN(C)C(=S)Oc1ccc2ccc(=O)oc2c1`, the EC50 is > 200 µM and the IC50 is > 200 µM. As for `O=C(Nc1cc(Cl)c(Cl)cc1Cl)C(=O)C1C(=O)NC(=S)NC1=O`, the result was inactive. On to `COC(=O)C(CC(C)C)NC(=O)CNC(=O)C(Cc1ccc(OCc2ccccc2)cc1)NC(=O)C(COCc1ccccc1)NC(=O)OC(C)(C)C` (stereo unspecified) (Boc-S(Bn)Y(Bn)GL-OMe; configuration not given here), for which the EC50 was > 200 µM and the 50% inhibitory concentration (IC50) is 115 µM. For the compound `O=C(CCCN1CCc2[nH]c3cc(F)ccc3c2C1)c1ccc(F)cc1`, the EC50 is > 200 µM and the IC50 was 24.5 µM. In the same order, the values of `CCOC(=O)CCC1(C(=O)OCC)CCCC1=O` (stereo unspecified) are > 263 µM and > 263 µM.

`Cc1cc(=O)c2ccc3c(ccc4c(=O)cc(C)[nH]c43)c2[nH]1`: the EC50 is > 200 µM and the IC50 came to 11.5 µM. The matching figures for `CCC1CC(C)=CCN1S(=O)(=O)c1ccc(C)cc1` (stereo unspecified): > 18.6 µM and > 18.6 µM. As to `COc1ccccc1C(=O)N(C)c1ccc(Cl)c(C(=O)OC(C)C)c1`, the result was inactive. For the compound `COc1cc(OC)cc(C2(C(=O)O)CCN(C)CC2)c1`, the EC50 is > 891 µM and the half-maximal inhibitory concentration (IC50) came to 97.7 µM. The matching figures for `OCc1ccc2ccc3ccc(CO)nc3c2n1`: > 389 µM and 263 µM. On to `CC(NNC(=O)c1ccncc1)c1ccc(F)cc1` (stereo unspecified), for which the EC50 is > 200 µM and the IC50 stood at 12.3 µM. As for `O=C1/C(=C/c2ccccc2)Oc2cc(O)ccc21`, the EC50 is > 200 µM and the IC50 amounted to 110 µM. Take `COC(=O)C1=Cc2cc(OC)c(O)cc2[C@@H](c2ccc(O)c(OC)c2)[C@@H]1C(=O)OC`: the EC50 was > 200 µM and the IC50 came to 77.6 µM.

As for `O=C(Nc1c(-c2nc3ccccc3[nH]2)sc(=S)n1-c1ccccc1)c1ccccc1`, the EC50 is > 3.39 µM and the IC50 was > 3.39 µM.

In the case of `CCOC(=O)C1=C(N)Oc2cc(O)cc(O)c2C1c1ccccc1` (stereo unspecified), the result was inactive. `CN1CC2(CO)C(c3ccccn3)N(C)C(c3ccccn3)C(CO)(C1)C2O` (stereo unspecified): the EC50 was > 115 µM and the IC50 was > 115 µM.

Consider `C1=C\C=C\C2OC2/C=C/1` (stereo unspecified), for which the EC50 is > 224 µM and the IC50 was determined as 112 µM. In the case of `CN1CCN(CCSc2nnc(-c3ccc4ccccc4c3)c3ccccc23)CC1`, the EC50 was > 219 µM and the IC50 came out at 12.9 µM. As to `C=C1C2CCC3(CCC4C5(C)CCCC4(CN(C(C)=O)C5)C3C2)C1O` (stereo unspecified), the result was inactive. With `CCCCC#COP(=O)(OCC)OCC`, the EC50 is > 251 µM and the IC50 was > 251 µM. With `COC(=O)c1ccc2n[se]nc2c1`, the result was inactive.

In the case of `Cc1ccc(/C=C2\CN(C)CC3=C2OC(N)=C(C#N)C3c2ccc(C)cc2)cc1` (stereo unspecified), the EC50 is > 200 µM and the IC50 was 10.2 µM. On to `O=c1c2c([nH]c3nccn13)CCC2`, for which the EC50 is > 200 µM and the half-maximal inhibitory concentration (IC50) was > 200 µM. On to `Cn1c(=O)cc(NNc2ccccc2)[nH]c1=O`, for which the EC50 was > 200 µM and the IC50 is 3.09 µM. In the same order, the values of `NS(=O)(=O)c1nnc(NC(=O)c2cccc([N+](=O)[O-])c2)s1` are > 200 µM and > 200 µM. As to `O=C(NCCO)c1ccc[c]([Sb](=[O])([OH])[OH])c1`, the EC50 was 23.4 µM and the IC50 was 398 µM. In the same order, the values of `O=C(Nc1ccccc1)C(=O)C(C(=O)c1ccccc1F)C1OC(=O)c2ccccc21` (stereo unspecified) are > 309 µM and 17.4 µM. For the compound `CCOC(=O)C1(C)C2=CC=C(O2)C(C)(C)C2=CC=C(O2)C(C)(C)C2=CC=C(O2)C(C)(C)C2=CC=C1O2`, the result was inactive.

Regarding `CCCOc1cnc([C@H]2CCC3[C@@H]4CC=C5C[C@@H](O)CC[C@]5(C)C4CC[C@@]32C)s1` (stereo partly specified), the EC50 is > 60.3 µM and the IC50 is > 60.3 µM. With `CCCCCCCCCCCc1c(O)c(O)cc2nc3cc(C(=O)NC(C(=O)O)C(C)C)ccc3nc12` (stereo unspecified), the EC50 was > 14.1 µM and the IC50 is > 14.1 µM. With `O=C1CCCC2=C1CC1=C(CCCC1=O)N2c1ccccc1`, the EC50 was > 100 µM and the IC50 is > 100 µM. On to `COc1ccc(S(=O)(=O)N/N=C(\C)CN2C(=O)c3ccccc3C2=O)cc1OC`, for which the EC50 was > 437 µM and the IC50 was > 437 µM. For `COc1ccc(/C=C2\C=Cc3ccccc32)cc1OC`, the EC50 is > 200 µM and the IC50 amounted to 33.9 µM. Regarding `COc1ccc2ccc3c(c2c1)CN1CCc2cc(OC)c(OC)cc2C1C3` (stereo unspecified), the result was inactive.

As for `CCOP(=O)(OCC)C(C)(C)N(C)/C(F)=N/C(F)(F)F`, the EC50 was > 200 µM and the IC50 was > 200 µM. As to `CCOC(=O)/C(O)=C(/C=N/C(=S)Nc1c(CC)cccc1CC)C(=O)OCC`, the EC50 is > 200 µM and the IC50 came to 110 µM. The matching figures for `COC1=C(c2c[nH]c3ccc(CC=C(C)C)cc23)C(=O)C(OC)=C(c2c[nH]c3ccc(CC=C(C)C)cc23)C1=O`: > 38.9 µM and 2.24 µM. The matching figures for `O=C1C(N=Nc2ccc([N+](=O)[O-])cc2)Sc2nc3ccccc3n21` (stereo unspecified): > 200 µM and 178 µM. Consider `CNc1ccc(N)cc1C(=O)N1CCC[C@H]1CO`, for which the EC50 is > 200 µM and the concentration for half-maximal inhibition (IC50) was > 200 µM. In the case of `C[Si](C)(C)/C=C/CN1C(=O)CCC1O` (stereo unspecified), the outcome was inactive.

`CCC/C(=N\NC(=O)c1cc2ccccc2cc1O)C(CC)C(=O)CCC(=O)N(Cc1ccccc1)Cc1ccccc1` (stereo unspecified): the EC50 was > 44.7 µM and the IC50 is > 44.7 µM. Take `CC(=O)O[C@H]1CCN2C(=O)C=CC(OCc3ccccc3)C12` (stereo partly specified): the EC50 is > 832 µM and the IC50 came to 794 µM. The matching figures for `CCOC(=O)C(=O)Nc1cc(Cl)ccc1Cl`: > 363 µM and > 363 µM.

Consider `Cn1c2ccccc2c(=O)c2c(O)cc3c(c21)C=CC1(CCCCC1)O3`, for which the EC50 was > 200 µM and the IC50 is > 200 µM.
